Read-outs that look alike come from different tables or passages of the source.
Tests used:
[1] = injected by any route of administration (e.g. Loo 2016); cited from earlier work
[2] = system: TRD patients; conditions: Singh et al. 2016, cited from earlier work
[3] = system: patients with treatment-resistant depression and/or treatment-resistant anxiety (TRD/TRA); test: Study ZPS-603 Cohort 4: mood ratings (HAMA, FQ, MADRS), open label multiple ascending dose; format: in vivo, human; conditions: injected drug in earlier treatment (FIG. 7)
Procedure: The objective of Cohort 4 was to evaluate efficacy, safety, PK and PD of an extended release ketamine oral formulation in patients with treatment-resistant depression and/or treatment-resistant anxiety (TRD/TRA). […] The design was an open label multiple ascending dose study. The initial dose was 60 mg, and could be escalated by an additional 60 mg 12 hourly, based on assessment of mood symptoms, to a maximum dose of 240 mg, with a total of 7 doses given 12 hourly between 0 and 72 hours. Endpoints included safety, tolerability, ketamine and norketamine PK, and PD (mood ratings including the Fear Questionnaire (FQ; Marks 1979), HAMA and MADRS, and dissociative symptom rating scale scores).

In the case of `CNC1(c2ccccc2Cl)CCCCC1=O` (stereo not shown) [IV ketamine, 2-(2-chlorophenyl)-2-(methylamino)cyclohexan-1-one], the “duration of marked dissociative symptoms after dosing” value [1] is given as “up to 60 minutes”, the TRD patients remitted ([2]; 0.5 mg/kg IV thrice weekly) is given as 23.1% and the TRD patients remitted ([2]; 0.5 mg/kg IV twice weekly for 15 days) is given as 37.5%. The “onset of improvement of anxiety symptoms” value [3] was 1 to 2 h.
